{"source": "ChEMBL document CHEMBL1132078", "about": "“Bicyclo[3.2.1]octanes: synthesis and inhibition of binding at the dopamine and serotonin transporters” (Bioorg Med Chem Lett, 1999)", "key": {"[1]": {"biological_target": "Sodium-dependent dopamine transporter (Macaca fascicularis, UniProt Q9GJT6)", "sequence (Q9GJT6 whole entry)": "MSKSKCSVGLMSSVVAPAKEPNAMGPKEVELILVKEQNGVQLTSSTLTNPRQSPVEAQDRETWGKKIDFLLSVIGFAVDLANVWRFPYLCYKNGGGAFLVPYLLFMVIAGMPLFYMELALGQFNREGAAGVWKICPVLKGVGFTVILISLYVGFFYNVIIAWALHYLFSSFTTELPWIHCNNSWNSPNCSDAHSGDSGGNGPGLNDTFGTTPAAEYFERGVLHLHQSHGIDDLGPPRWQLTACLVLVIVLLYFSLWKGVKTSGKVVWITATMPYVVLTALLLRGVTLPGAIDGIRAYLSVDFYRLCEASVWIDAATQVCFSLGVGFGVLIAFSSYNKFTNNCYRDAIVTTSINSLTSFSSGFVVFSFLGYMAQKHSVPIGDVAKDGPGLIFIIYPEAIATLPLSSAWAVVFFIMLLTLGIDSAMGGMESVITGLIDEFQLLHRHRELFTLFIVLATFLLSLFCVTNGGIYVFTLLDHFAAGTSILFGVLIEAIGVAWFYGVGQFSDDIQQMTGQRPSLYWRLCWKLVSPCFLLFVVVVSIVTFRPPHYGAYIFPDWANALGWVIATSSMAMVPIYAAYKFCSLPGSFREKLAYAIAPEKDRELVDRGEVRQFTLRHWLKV", "experiment": "Inhibition of [3H]WIN-35428 binding to dopamine transporter (DAT) of cynomolgus monkey caudate-putamen", "format": "tissue-based"}, "[2]": {"biological_target": "Sodium-dependent serotonin transporter", "experiment": "Inhibition of [3H]citalopram binding to serotonin transporter (SERT) of cynomolgus monkey caudate-putamen", "format": "tissue-based"}}, "data": [{"compound": "COC(=O)C1C2CCC(CC1c1ccc(Cl)c(Cl)c1)N2", "note": "(stereo not given)", "values": [{"measurement": "IC50", "setting": "[1]", "result": 0.7, "unit": "nM"}, {"measurement": "IC50", "setting": "[2]", "result": 1.24, "unit": "nM"}]}, {"compound": "COC(=O)C1=C(c2ccc(Cl)c(Cl)c2)CC2CCC1N2C", "note": "(stereo not given)", "values": [{"measurement": "IC50", "setting": "[1]", "result": 1.2, "unit": "nM"}, {"measurement": "IC50", "setting": "[2]", "result": 867, "unit": "nM"}]}, {"compound": "COC(=O)C1C(c2ccc(Cl)c(Cl)c2)CC2CCC1N2C", "note": "(stereo not given)", "values": [{"measurement": "IC50", "setting": "[1]", "result": 1.1, "unit": "nM"}, {"measurement": "IC50", "setting": "[2]", "result": 27.6, "unit": "nM"}]}, {"compound": "COC(=O)C1=C(c2ccc(Cl)c(Cl)c2)CC2CCC1C2", "note": "(racemic)", "values": [{"measurement": "IC50", "setting": "[1]", "result": 7.1, "unit": "nM"}, {"measurement": "IC50", "setting": "[2]", "result": 5160, "unit": "nM"}]}, {"compound": "COC(=O)C1C2CCC(CC1c1ccc(Cl)c(Cl)c1)O2", "note": "(stereo in doubt; 7b (R))", "values": [{"measurement": "IC50", "setting": "[1]", "result": 2.3, "unit": "nM"}, {"measurement": "IC50", "setting": "[2]", "result": 30.3, "unit": "nM"}]}, {"compound": "COC(=O)C1C2CCC(CC1c1ccc(Cl)c(Cl)c1)O2", "note": "(racemic; form 2)", "values": [{"measurement": "IC50", "setting": "[1]", "result": 3.1, "unit": "nM"}]}, {"compound": "COC(=O)C1C2CCC(C2)CC1c1ccc(Cl)c(Cl)c1", "note": "(racemic)", "values": [{"measurement": "IC50", "setting": "[1]", "result": 14.3, "unit": "nM"}, {"measurement": "IC50", "setting": "[2]", "result": 180, "unit": "nM"}]}, {"compound": "COC(=O)C1=C(c2ccc(Cl)c(Cl)c2)CC2CCC1O2", "note": "(stereo in doubt; 5b (R/S))", "values": [{"measurement": "IC50", "setting": "[1]", "result": 12.8, "unit": "nM"}, {"measurement": "IC50", "setting": "[2]", "result": 1960, "unit": "nM"}]}, {"compound": "COC(=O)C1C2CCC(CC1c1ccc(Cl)c(Cl)c1)O2", "note": "(racemic; form 1)", "values": [{"measurement": "IC50", "setting": "[1]", "result": 3.4, "unit": "nM"}]}, {"compound": "COC(=O)C1=C(c2ccc(Cl)c(Cl)c2)CC2CCC1O2", "note": "(stereo in doubt; 5b (R))", "values": [{"measurement": "IC50", "setting": "[1]", "result": 4.2, "unit": "nM"}, {"measurement": "IC50", "setting": "[2]", "result": 2120, "unit": "nM"}]}, {"compound": "COC(=O)C1C2CCC(C2)CC1c1ccc(Cl)c(Cl)c1", "note": "(stereo in doubt; 6a (R/S))", "values": [{"measurement": "IC50", "setting": "[1]", "result": 9.6, "unit": "nM"}, {"measurement": "IC50", "setting": "[2]", "result": 33.4, "unit": "nM"}]}]}
